Results as given in patent US20250186436A1 (4E Therapeutics, Inc., priority 2021, published 2025).
Where “and” joins values, the source holds several entries; their conditions need not be identical. Identical values can stand only once. Like-named read-outs stand apart in the source and are kept apart here.

Key:
[1] = target: T1, recombinant full-length human kinase MNK1 (Homo sapiens, UniProt Q9BUB5); test: MNK1 radiometric kinase activity assay; assay type: biochemical; conditions: radiometric activity assay; read-out: MNK1
T1 construct: the recombinant full-length human kinase MNK1; made in house; host or cells: insect cells

[2] = PK study in male Sprague-Dawley rats dosed once per day for five days, PO 25 mg/kg, 0.5% HPMC (Example 8); assay type: in vivo; conditions: 0.5% HPMC suspension
Procedure: Example 8. PK study of 4ET-03-053 in male Sprague-Dawley rats dosed once per day for five days (P0; 25 mg/kg; 0.5HPMC aqueous suspension)
Table 24 provides plasma and brain concentrations at 24 hr after the last dose of five daily PO doses of 4ET-03-053.

[3] = day five of daily PO 25 mg/kg, individual animals, 25 mg/kg
[4] = day five of daily PO 25 mg/kg, mean (n = 3)
[5] = male, Sprague-Dawley, rat, in vivo, po, 25 mg/kg, day five of daily PO 25 mg/kg, individual animals
[6] = male, Sprague-Dawley, rat, in vivo, po, 25 mg/kg, day five of daily PO 25 mg/kg, mean (n = 3)
[7] = male, Sprague-Dawley, rat, in vivo, po, 25 mg/kg, single PO 25 mg/kg dose, individual animals
[8] = male, Sprague-Dawley, rat, in vivo, po, 25 mg/kg, single PO 25 mg/kg dose, mean (n = 3)

T1 sequence (Q9BUB5 whole entry): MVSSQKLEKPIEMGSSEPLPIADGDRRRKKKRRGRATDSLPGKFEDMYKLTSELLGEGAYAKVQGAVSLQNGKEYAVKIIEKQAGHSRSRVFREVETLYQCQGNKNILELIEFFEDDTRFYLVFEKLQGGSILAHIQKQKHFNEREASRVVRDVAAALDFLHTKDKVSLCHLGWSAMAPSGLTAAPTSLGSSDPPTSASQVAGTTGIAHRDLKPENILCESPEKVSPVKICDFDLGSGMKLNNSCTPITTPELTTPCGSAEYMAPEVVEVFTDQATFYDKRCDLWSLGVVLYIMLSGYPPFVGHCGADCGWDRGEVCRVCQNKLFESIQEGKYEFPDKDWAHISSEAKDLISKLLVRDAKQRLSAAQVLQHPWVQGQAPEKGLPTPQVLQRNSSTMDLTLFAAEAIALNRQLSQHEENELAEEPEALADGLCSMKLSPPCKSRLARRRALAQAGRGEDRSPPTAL

Cc1cc(Nc2cc(N)ncn2)c(=O)n2c1C(=O)NC21CCC2(CC2)CC1 [4ET-03-053, 6″-((6-Aminopyrimidin-4-yl)amino)-8″-methyl-2″H-dispiro[cyclopropane-1,1′-cyclohexane-4′,3″-imidazo[1,5-a]pyridine]-1″,5″-dione]
IC50 [1]: 215 nM | time to peak plasma concentration ([2]; after the last of five daily 25 mg/kg PO doses): ≤ 1 h | AUCinf [2, 3]: 489.224 µg·h/mL and 471.587 µg·h/mL | AUCinf/D [2, 3]: 16316 kg·h/kL and 19569 kg·h/kL and 18863 kg·h/kL | AUClast [2, 3]: 403.575 µg·h/mL and 371.995 µg·h/mL | Clast [2, 3]: 5340 ng/mL and 6120 ng/mL | Cmax [2, 3]: 26800 ng/mL and 29900 ng/mL | Cmax/D [2, 3]: 1184 kg/kL and 1072 kg/kL and 1196 kg/kL | F [2, 3]: 31.7% and 38.0% and 36.6% | MRTinf [2, 3]: 13.2 h and 14.8 h | t1/2 [2, 3]: 10.7 h and 9.67 h | AUCinf/D [2, 4]: 18250 kg·h/kL | Cmax/D [2, 4]: 1151 kg/kL | F [2, 4]: 35.5% | concentration at 24 h ([2]; male, Sprague-Dawley, rat, in vivo, po, 25 mg/kg, after the last of five daily 25 mg/kg PO doses, at 24 hr, read-out: last measurable concentration): 5890 ng/mL | Cmax ([2]; male, Sprague-Dawley, rat, in vivo, po, 25 mg/kg, after the last of five daily 25 mg/kg PO doses, read-out: peak plasma concentration (Cmax)): 28800 ng/mL | half-life ([2]; male, Sprague-Dawley, rat, in vivo, po, 25 mg/kg, after the last of five daily 25 mg/kg PO doses, read-out: terminal half-life (t1/2) (converted)): 10.5 h | AUC(0-inf) ([2]; male, Sprague-Dawley, rat, in vivo, po, 25 mg/kg, after the last of five daily 25 mg/kg PO doses, read-out: total systemic exposure (AUCinf)): 456 µg·h/mL | AUC(0-t) [2, 5]: 324 µg·h/mL | MRT inf [2, 5]: 14.5 h | Tmax [2, 5]: 1 h | AUC(0-inf) ([2]; male, Sprague-Dawley, rat, in vivo, po, 25 mg/kg, day five of daily PO 25 mg/kg, individual animals, read-out: AUCinf): 408 µg·h/mL | concentration at 24 h ([2]; male, Sprague-Dawley, rat, in vivo, po, 25 mg/kg, day five of daily PO 25 mg/kg, individual animals, read-out: Clast): 6220 ng/mL | Cmax ([2]; male, Sprague-Dawley, rat, in vivo, po, 25 mg/kg, day five of daily PO 25 mg/kg, individual animals, read-out: Cmax): 29600 ng/mL | half-life ([2]; male, Sprague-Dawley, rat, in vivo, po, 25 mg/kg, day five of daily PO 25 mg/kg, individual animals, read-out: t1/2 (converted)): 11 h | AUC(0-t) [2, 6]: 367 µg·h/mL | MRT inf [2, 6]: 14.1 h | Tmax [2, 6]: 1 h | AUC(0-inf) ([2]; male, Sprague-Dawley, rat, in vivo, po, 25 mg/kg, day five of daily PO 25 mg/kg, mean (n = 3), read-out: AUCinf): 456 µg·h/mL | concentration at 24 h ([2]; male, Sprague-Dawley, rat, in vivo, po, 25 mg/kg, day five of daily PO 25 mg/kg, mean (n = 3), read-out: Clast): 5890 ng/mL | Cmax ([2]; male, Sprague-Dawley, rat, in vivo, po, 25 mg/kg, day five of daily PO 25 mg/kg, mean (n = 3), read-out: Cmax): 28800 ng/mL | half-life ([2]; male, Sprague-Dawley, rat, in vivo, po, 25 mg/kg, day five of daily PO 25 mg/kg, mean (n = 3), read-out: t1/2 (converted)): 10.5 h | AUC(0-t) [2, 7]: 288 µg·h/mL | MRT inf [2, 7]: 9.26 h | Tmax [2, 7]: 1 h | AUC(0-inf) ([2]; male, Sprague-Dawley, rat, in vivo, po, 25 mg/kg, single PO 25 mg/kg dose, individual animals, read-out: AUCinf): 315 µg·h/mL | concentration at 24 h ([2]; male, Sprague-Dawley, rat, in vivo, po, 25 mg/kg, single PO 25 mg/kg dose, individual animals, read-out: Clast): 3130 ng/mL | Cmax ([2]; male, Sprague-Dawley, rat, in vivo, po, 25 mg/kg, single PO 25 mg/kg dose, individual animals, read-out: Cmax): 24400 ng/mL | AUC(0-t) [2, 8]: 312 µg·h/mL | MRT inf [2, 8]: 9.25 h | Tmax [2, 8]: 1.33 h | AUC(0-inf) ([2]; male, Sprague-Dawley, rat, in vivo, po, 25 mg/kg, single PO 25 mg/kg dose, mean (n = 3), read-out: AUCinf): 341 µg·h/mL | Cmax ([2]; male, Sprague-Dawley, rat, in vivo, po, 25 mg/kg, single PO 25 mg/kg dose, mean (n = 3), read-out: Cmax): 25900 ng/mL | half-life ([2]; male, Sprague-Dawley, rat, in vivo, po, 25 mg/kg, single PO 25 mg/kg dose, mean (n = 3), read-out: t1/2 (converted)): 6.82 h | Cmax ([2]; male, Sprague-Dawley, rat, in vivo, po, 25 mg/kg, single PO 25 mg/kg, read-out: peak plasma concentration (Cmax)): 25900 ng/mL | half-life ([2]; male, Sprague-Dawley, rat, in vivo, po, 25 mg/kg, single PO 25 mg/kg, read-out: terminal half-life (t1/2) (converted)): 6.82 h | AUC(0-inf) ([2]; male, Sprague-Dawley, rat, in vivo, po, 25 mg/kg, single PO 25 mg/kg, read-out: total systemic exposure (AUCinf)): 341 µg·h/mL | bioavailability ([2]; male, rat, in vivo, after the last of five daily 25 mg/kg PO doses): 35.5% | AUCinf ([2]; single PO 25 mg/kg dose, individual animals, 25 mg/kg): 363.793 µg·h/mL and 345.084 µg·h/mL
